Test results published in patent US20120015925A1, “NOVEL BENZOTHIAZEPINE AND BENZOTHIEPINE COMPOUNDS” (ASAHI KASEI PHARMA CORPORATION, priority 2004, published 2012).

Legend:
[1] = test system: rats dosed cholic acid; experiment: Lowering effect on bile acid concentrations in portal vein blood in rats dosed cholic acid; format: in vivo, rat
Experimental: In the present Test Example, a lowering effect on bile acid concentrations in portal vein blood in rats dosed cholic acid was evaluated according to the method described in Jpn. Pharmacol. Ther., Vol. 24 Supplement, 1996, 103(S-577)-110(S-584).
That is, SD (IGS) strain male rats at 7 to 9 weeks of age were fasted one day before the administration date. […] The blood was collected from the portal vein 2 hours after the forced oral administration, and a total bile acid value in serum was measured to examine the effect of the test compound (n=6). As a control, another group (n=6) merely received cholic acid (200 mg/kg), to which the same procedure was applied. The cholic acid value was measured using the commercially available kit (brand name: Total Bile Acid-Test Wako, supplied form Wako Pure Chemical Industries). Defining the value in the control group to which no test compound had been administered as being 100%, a reduction rate (%) of the bile acid value when a certain amount of the test compound had been administered was calculated.

[2] = test system: Caco-2 cell; experiment: Gastrointestinal toxicity: cytotoxicity against Caco-2 cell (LDH activity); format: cell-based, human; details: 2 hours, LDH activity in medium relative to cell lysis agent = 100%
Experimental: That is, 10,000 cells/well of Caco-2 cells (purchased from ATCC) were seeded in a 96-well plate [MEM-E medium, 10% FBS (Fetal Bovine Serum), 1% NEAA (Non Essential Amino Acid) solution, supplied from Gibco]. After culturing for 48 hours, the test compound diluted with the medium was added to each well. After 2 hours, 50 μL of the medium was collected, and an LDH activity in the medium was measured using an LDH activity measurement kit (CytoTox96 Non-Radioactive Cytotoxicity Assay, supplied from Promega). Defining the LDH activity of the Caco-2 cells treated with a cell lysis agent as being 100%, the relative activity was calculated as a index of the cytotoxicity.

[3] = biological target: T1, human IBAT (Homo sapiens, UniProt Q12908); experiment: In vitro assay using Cos 7 cells, transiently expressed human IBAT; format: cell-based; details: 37° C., 60 minutes
T1 sequence (Q12908 1-348): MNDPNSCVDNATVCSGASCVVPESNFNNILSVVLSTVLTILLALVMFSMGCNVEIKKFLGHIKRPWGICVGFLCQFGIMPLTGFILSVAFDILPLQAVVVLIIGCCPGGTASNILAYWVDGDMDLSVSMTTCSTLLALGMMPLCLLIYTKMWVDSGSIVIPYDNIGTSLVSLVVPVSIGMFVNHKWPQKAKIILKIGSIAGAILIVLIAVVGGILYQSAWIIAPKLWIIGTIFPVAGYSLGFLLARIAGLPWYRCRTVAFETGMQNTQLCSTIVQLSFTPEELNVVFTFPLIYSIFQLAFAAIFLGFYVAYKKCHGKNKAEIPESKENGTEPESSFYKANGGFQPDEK
Outline: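 Cos 7 cells transfected with human or rat IBAT cDNA were assayed one day later in Hanks buffer with 25 mM glucose and 10 mM HEPES (pH 7.4) containing compound. [^3H]-taurocholate (8 μM final) uptake ran 60 min at 37° C. Cells were washed with 1 mM taurocholate, lysed in NaOH, and counted by liquid scintillation.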

[4] = test system: rats fed cholesterol food; experiment: Blood cholesterol lowering effect in rats fed cholesterol food; format: in vivo, rat; details: 0.3 mg/kg per administration, oral, twice per day; SD (IGS) male rats; serum 3 hours after final administration
Experimental: In the present Test Example, a blood cholesterol lowering effect on rats fed cholesterol food was evaluated according to the method described in J. Lipid Res., 1995, 36, 1098-1105.
That is, the food containing 0.4% cholesterol and 0.5% bile acid was given to SD (IGS) strain male rats at 7 to 9 weeks of age for 5 days in advance of the test date, to increase blood cholesterol levels. The rats in which the blood cholesterol level had been obviously elevated from the level before loading the cholesterol food were selected as the subjects in the test. Colestimide (brand name: Cholebine 70% granules, supplied from Mitsubishi Tokyo Pharmaceutical Inc.) which is an anion exchange resin drug was suspended in distilled water, and the test compound was dissolved or suspended in distilled water. They were orally administered forcibly twice per day everyday from the starting date (each n=8). The blood was collected from jugular vein 3 hours after the drug administration on the final day of the experiment, and the cholesterol level in serum was measured to examine the effect of the test compound. As a control, another group (n=8) was merely fed cholesterol food, to which distilled water (1 mL/kg) was administered and the same procedure was applied. The total cholesterol value and the HDL cholesterol value were measured using commercially available kits. The value obtained by subtracting the HDL cholesterol value from the total cholesterol value was regarded as an LDL+VLDL cholesterol value.

[5] = 0.1 mg/kg oral with cholic acid 200 mg/kg, portal vein serum total bile acid 2 hours after, control = 100%, surfactant HCO-60 (##)
[6] = 0.1 mg/kg oral, surfactant Tween 20 0.05%, cholic acid 200 mg/kg, portal vein blood 2 hours after administration
[7] = 0.1 mg/kg oral, surfactant HCO-60 0.1%, cholic acid 200 mg/kg, portal vein blood 2 hours after administration

CCCCC1(CCCC)CS(=O)(=O)c2ccc(N(C)C)cc2C(c2cccc(NC(=S)Nc3ccc(C[N+](C)(C)CCCC)cc3)c2)N1.[Br-] (racemic) [EXAMPLE 3409]
BILE ACID REDUCTION RATE (%) IN RAT MODEL WITH CHOLIC ACID LOADING [1, 5]: 28% | CELL TOXICITY AGAINST Caco2 3 μM [2]: <1% | CELL TOXICITY AGAINST Caco2 10 μM [2]: <1% | CELL TOXICITY AGAINST Caco2 30 μM [2]: <1% | IC50 ([3]; [3H]-taurocholate 8 μM uptake): 45 nM

CCCCC1(CCCC)CS(=O)(=O)c2ccc(N(C)C)cc2C(c2cccc(NC(=S)Nc3ccc(C[N+](C)(C)CCOCCO)cc3)c2)N1.[Br-] (racemic) [EXAMPLE 3475]
BILE ACID REDUCTION RATE (%) IN RAT MODEL WITH CHOLIC ACID LOADING [1, 5]: 19%

CCCCC1(CCCC)CS(=O)(=O)c2ccc(N(C)C)cc2C(c2cccc(NC(=S)NCCC[N+](C)(C)Cc3ccccc3)c2)N1.[Br-] (stereo not drawn) [EXAMPLE 425]
BILE ACID REDUCTION RATE (%) IN RAT MODEL WITH CHOLIC ACID LOADING [1, 6]: 21% | IC50 ([3]; [3H]-taurocholate 8 μM uptake): 170 nM

CCCCC1(CCCC)CS(=O)(=O)c2ccc(N(C)C)cc2C(c2cccc(NC(=S)NCCCC[N+](C)(C)Cc3ccccc3)c2)N1.[Br-] (stereo not drawn) [EXAMPLE 801]
BILE ACID REDUCTION RATE (%) IN RAT MODEL WITH CHOLIC ACID LOADING [1, 7]: 33%

CCCCC1(CCCC)CS(=O)(=O)c2ccc(N(C)C)cc2C(c2cccc(NC(=S)Nc3ccc(C[N+]4(Cc5ccccc5)CCCC(CO)C4)cc3)c2)N1.[Br-] (stereo not drawn) [EXAMPLE 3607]
BILE ACID REDUCTION RATE (%) IN RAT MODEL WITH CHOLIC ACID LOADING [1, 7]: 36% | CELL TOXICITY AGAINST Caco2 3 μM [2]: <1% | CELL TOXICITY AGAINST Caco2 10 μM [2]: <1% | CELL TOXICITY AGAINST Caco2 30 μM [2]: <1% | IC50 ([3]; [3H]-taurocholate 8 μM uptake): 41 nM

CCCCC1(CCCC)CS(=O)(=O)c2ccc(N(C)C)cc2C(c2cccc(NC(=S)Nc3ccc(C[N+]4(Cc5ccccc5)CCC(CCO)CC4)cc3)c2)N1.[Br-] (stereo not drawn) [EXAMPLE 3608]
BILE ACID REDUCTION RATE (%) IN RAT MODEL WITH CHOLIC ACID LOADING [1, 7]: 43% | CELL TOXICITY AGAINST Caco2 3 μM [2]: <1% | CELL TOXICITY AGAINST Caco2 10 μM [2]: <1% | CELL TOXICITY AGAINST Caco2 30 μM [2]: <1% | IC50 ([3]; [3H]-taurocholate 8 μM uptake): 59 nM

CCCCC1(CCCC)CS(=O)(=O)c2ccc(N(C)C)cc2C(c2cccc(NC(=S)Nc3ccc(C[n+]4ccc(CC)cc4)cc3)c2)N1.[Br-] (stereo not drawn) [EXAMPLE 3710]
BILE ACID REDUCTION RATE (%) IN RAT MODEL WITH CHOLIC ACID LOADING [1, 5]: 20% | CELL TOXICITY AGAINST Caco2 3 μM [2]: <1% | CELL TOXICITY AGAINST Caco2 10 μM [2]: <1% | CELL TOXICITY AGAINST Caco2 30 μM [2]: <1% | IC50 ([3]; [3H]-taurocholate 8 μM uptake): 52 nM

CCCCC1(CCCC)CS(=O)(=O)c2ccc(N(C)C)cc2C(c2cccc(NC(=S)Nc3ccc(C[n+]4cccc(CC#N)c4)cc3)c2)N1.[Br-] (stereo not drawn) [EXAMPLE 3759]
BILE ACID REDUCTION RATE (%) IN RAT MODEL WITH CHOLIC ACID LOADING ([1]; 0.3 mg/kg oral with cholic acid 200 mg/kg, portal vein serum total bile acid 2 hours after, control = 100%, surfactant HCO-60 (##)): 36% | CELL TOXICITY AGAINST Caco2 3 μM [2]: <1% | CELL TOXICITY AGAINST Caco2 10 μM [2]: <1% | CELL TOXICITY AGAINST Caco2 30 μM [2]: <1%

CCCCC1(CCCC)CS(=O)(=O)c2ccc(N(C)C)cc2C(c2cccc(NC(=S)Nc3ccc(C[n+]4ccc5ccccc5c4)cc3)c2)N1.[Br-] (stereo not drawn) [EXAMPLE 3783]
BILE ACID REDUCTION RATE (%) IN RAT MODEL WITH CHOLIC ACID LOADING [1, 5]: 16% | CELL TOXICITY AGAINST Caco2 3 μM [2]: <1% | CELL TOXICITY AGAINST Caco2 10 μM [2]: <1% | CELL TOXICITY AGAINST Caco2 30 μM [2]: <1% | IC50 ([3]; [3H]-taurocholate 8 μM uptake): 48 nM

CCCCC1(CCCC)CS(=O)(=O)c2ccc(N(C)C)cc2C(c2cccc(NC(=S)CCCCC[N+](C)(C)Cc3ccccc3)c2)N1.[Br-] (stereo not drawn) [EXAMPLE 3835]
BILE ACID REDUCTION RATE (%) IN RAT MODEL WITH CHOLIC ACID LOADING [1, 6]: 23% | CELL TOXICITY AGAINST Caco2 3 μM [2]: <1% | CELL TOXICITY AGAINST Caco2 10 μM [2]: <1% | CELL TOXICITY AGAINST Caco2 30 μM [2]: <1% | IC50 ([3]; [3H]-taurocholate 8 μM uptake): 43 nM

CCCCC1(CCCC)CS(=O)(=O)c2ccc(N(C)C)cc2C(c2cccc(NC(=S)Nc3ccccc3C[N+]34CCC(CC3)CC4)c2)N1.[Br-] (stereo not drawn) [EXAMPLE 4905]
BILE ACID REDUCTION RATE (%) IN RAT MODEL WITH CHOLIC ACID LOADING [1, 5]: 28%

CCCCC1(CCCC)CS(=O)(=O)c2ccc(N(C)C)cc2C(c2cccc(NC(=S)Nc3ccc(C[n+]4ccc(C(C)(C)C)cc4)c(C)c3)c2)N1.[Br-] (stereo not drawn) [EXAMPLE P365]
BILE ACID REDUCTION RATE (%) IN RAT MODEL WITH CHOLIC ACID LOADING [1, 5]: 40% | LDL + VLDL REDUCTION RATE (%) IN CHOLESTEROL FED RAT MODEL (THERAPEUTIC MODEL) [4]: 44% | IC50 ([3]; [3H]-taurocholate 8 μM): 47 nM

CCCCC1(CCCC)CS(=O)(=O)c2ccc(N(C)C)cc2C(c2cccc(NC(=S)Nc3ccc(C[n+]4ccc(C(C)(C)C)cc4)cc3F)c2)N1.[Br-] (stereo not drawn) [EXAMPLE P366]
BILE ACID REDUCTION RATE (%) IN RAT MODEL WITH CHOLIC ACID LOADING [1, 5]: 45% | LDL + VLDL REDUCTION RATE (%) IN CHOLESTEROL FED RAT MODEL (THERAPEUTIC MODEL) [4]: 31% | IC50 ([3]; [3H]-taurocholate 8 μM uptake): 25 nM

CCCCC1(CCCC)CS(=O)(=O)c2ccc(N(C)C)cc2C(c2cccc(NC(=S)NCCC[N+]34CCC(CC3)CC4)c2)N1.[Br-] (stereo not drawn) [Example 9, 1-(3-{3-[3-(3,3-dibutyl-7-dimethylamino-1,1-dioxo-2,3,4,5-tetrahydro-1,4-benzothiazepine-5-yl)phenyl]thioureido}propyl)-1-azoniabicyclo[2.2.2]octane bromide]
BILE ACID REDUCTION RATE (%) IN RAT MODEL WITH CHOLIC ACID LOADING [1, 6]: 13%

CCCCC1(CCCC)CS(=O)(=O)c2ccc(N(C)C)cc2C(c2ccc(NC(=S)Nc3ccc(C[N+](C)(C)Cc4ccccc4)cc3)cc2)N1.[Br-] (stereo not drawn) [Example 5405, Benzyl-(4-{3-[4-(3,3-dibutyl-7-dimethylamino-1,1-dioxo-2,3,4,5-tetrahydro-1,4-benzothiazepine-5-yl)phenyl]thioureido}benzyl)dimethylammonium bromide]
BILE ACID REDUCTION RATE (%) IN RAT MODEL WITH CHOLIC ACID LOADING ([1]; po, 0.1 mg/kg, 2 h): 16%

CCCCC1(CCCC)CS(=O)(=O)c2ccc(N(C)C)cc2C(c2ccc(NC(=S)Nc3cccc(C[N+]45CCC(CC4)CC5)c3)cc2)N1.[Br-] (stereo not drawn) [Example 5406, 1-(3-{3-[4-(3,3-dibutyl-7-dimethylamino-1,1-dioxo-2,3,4,5-tetrahydro-1,4-benzothiazepine-5-yl)phenyl]thioureido}benzyl)-1-azoniabicyclo[2.2.2]octane bromide]
BILE ACID REDUCTION RATE (%) IN RAT MODEL WITH CHOLIC ACID LOADING ([1]; po, 0.1 mg/kg, 2 h): 15%
